Reference: patent publication US12653895B2, “Therapeutic conjugates” (Totus Medicines Inc., priority 2019, dated 2026)

System: PI3-kinase
Experiment: NanoBRET screening of ARCS in transfected HEK293 cells with washout (covalent binding to and inhibition of PI3-kinase)
Assay type: cell-based
Details: NanoBRET binding assay; key headed Percent inhibition
Description: Human embryonic kidney 293-H (HEK 293, Gibco 293-H, #11631017) cell lines are maintained in Dulbecco's Modified Eagle Medium, high glucose, pyruvate (DMEM, Gibco, #11995065) supplemented with 10% fetal bovine serum (FBS, Gibco, #10082147) and 1× penicillin-streptomycin (100× solution, Gibco, #15140148) at 37° C. and 5% CO2 in a water-saturated incubator. Cell are trypsinized using 0.05% or 0.25% Trypsin-EDTA solution (Trypsin-EDTA, phenol red, Gibco, #25200056 (0.25%) or #25300054). Opti-MEM media supplemented with 10% fetal bovine serum (Opti-MEM I reduced serum media, no phenol red, Gibco, #11058021) is used for culturing cells overnight for NanoBRET readout experiments.
HEK293 cells are cultivated appropriately prior to assay. The medium from cell flask is removed via aspiration, washed 1× with PBS followed by aspiration, trypsinized, and cells are allowed to dissociate from the flask. Trypsin is neutralized using growth medium and cells are pelleted via centrifugation at 200×g for 5 minutes. The medium is aspirated and the cells are resuspended into a single cell suspension using Opti-MEM I supplemented with 10% FBS. The cell density is adjusted to 2×10^5/mL in Opti-MEM I supplemented with 10% FBS in a sterile, conical tube. The cells are transfected and aliquoted directly in a 96-well plate for the NanoBRET assay the next day, and therefore, the cells are cultured overnight in Opti-MEM. The cells are also transfected in bulk and dispensed into a 96-well plate to allow cells to adhere to the plate overnight, thereby enabling washout studies.
The lipid:DNA complexes are prepared as follows:
A 10 μg/mL solution of DNA is prepared in Opti-MEM without serum. This solution contains the following ratios of carrier DNA and DNA encoding NanoLuc fused to the biological target. Serial dilution steps may be warranted to accurately dilute the NanoLuc fusion DNA. Added, in order, the following reagents to a sterile polystyrene test tube: 1 mL of Opti-MEM without phenol red; 9.0 μg/mL of carrier DNA; 1.0 μg/mL of NanoLuc fusion DNA (for some targets, the amount is less). The reagents are mixed thoroughly.
30 μL of FuGENE HD is added into each mL of DNA mixture to form lipid:DNA complex. […] It is mixed by pipetting up and down 5-10 times and incubated at room temperature for 20 minutes to allow complexes to form. 1 part (e.g. 1 mL) of lipid:DNA complex is mixed with 20 parts (e.g. 20 mL) of HEK293 cells in suspension at 2×10^5/mL and mixed gently by pipetting up and down 5 times in a sterile, conical tube. Larger or smaller bulk transfections are scaled accordingly, using this ratio. […] is dispensed into a sterile, tissue-culture treated 96-well plate (20,000 cells/well), and incubated at least 16 hours to allow expression. The cells are incubated in a 37° C.+5% CO2 incubator for >16 hrs. A serially diluted inhibitor or test compound is prepared at 100× final concentration in 100% DMSO. The serially diluted inhibitor stock is prepared in PCR plates. 1 μL per well of 100× serially diluted inhibitor/test compound is added to the cells in 96-well plates that have been transiently transfected overnight and mixed by tapping the plate by hand. The plate is incubated at 37° C.+5% CO2 incubator overnight. A 1× solution of substrate mix (500× stock) and appropriate concentration of tracer is prepared in Opti-Mem. The cells are washed by setting a plate washer to the 96 well plate 5× in PBS pH 7.4 by adding 200 μL PBS each time. The cells are incubated at 37° C. for 2 hours. […], of the 1× Substrate-Tracer solution is added and the 96 well plate is gently tapped to mix. The plate on plate reader is read every hour for the next 6 hours. The binding assays of some ARCS are shown below. Compound 1-XXXII formed a covalent bond with PI3-kinase from about 5% to 20%. ARCS selected from the group consisting of Compounds 1-101, 1-102, 1-113, 1-114, 1-119, 1-120, 1-125 and 1-126 formed a covalent bond with PI3-kinase from about 80% to 100%. […]

SMILES: C=CC(=O)CCC(=O)N1CCN(Cc2cc3c(N4CCOCC4)nc(-c4cnc(NC(=O)OC)cc4C(F)(F)F)nn3c2)CC1 [Compound 1-101]
- Binding: +++ (>80%)

SMILES: C=CC(=O)NCC(=O)N1CCN(Cc2cc3c(N4CCOCC4)nc(-c4cnc(NC(=O)OC)cc4C(F)(F)F)nn3c2)CC1 [Compound 1-102]
- Binding: +++ (>80%)

SMILES: COC(=O)Nc1cc(C(F)(F)F)c(-c2nc(N3CCOCC3)c3cc(CN4CCN(C(=O)CCC(=O)C=C(C)C)CC4)cn3n2)cn1 [Compound 1-113]
- Binding: +++ (>80%)

SMILES: COC(=O)Nc1cc(C(F)(F)F)c(-c2nc(N3CCOCC3)c3cc(CN4CCN(C(=O)CNC(=O)C=C(C)C)CC4)cn3n2)cn1 [Compound 1-114]
- Binding: +++ (>80%)

SMILES: COC(=O)Nc1cc(C(F)(F)F)c(-c2nc(N3CCOCC3)c3cc(CN4CCN(C(=O)CCC(=O)/C=C/CN(C)C)CC4)cn3n2)cn1 [Compound 1-119]
- Binding: +++ (>80%)

SMILES: COC(=O)Nc1cc(C(F)(F)F)c(-c2nc(N3CCOCC3)c3cc(CN4CCN(C(=O)CNC(=O)/C=C/CN(C)C)CC4)cn3n2)cn1 [Compound 1-120]
- Binding: +++ (>80%)

SMILES: CC#CC(=O)CCC(=O)N1CCN(Cc2cc3c(N4CCOCC4)nc(-c4cnc(NC(=O)OC)cc4C(F)(F)F)nn3c2)CC1 [Compound 1-125]
- Binding: +++ (>80%)

SMILES: CC#CC(=O)NCC(=O)N1CCN(Cc2cc3c(N4CCOCC4)nc(-c4cnc(NC(=O)OC)cc4C(F)(F)F)nn3c2)CC1 [Compound 1-126]
- Binding: +++ (>80%)

SMILES: C=CC(=O)Nc1ccc(C(=O)N2CCN(Cc3cc4c(N5CCOCC5)nc(-c5cnc(NC(=O)OC)cc5C(F)(F)F)nn4c3)CC2)cc1 [Compound 1-171]
- Binding: ++ (50-80%)

SMILES: C=CC(=O)Nc1ccc(CCNCc2cc3c(N4CCOCC4)nc(-c4cnc(NC(=O)OC)cc4C(F)(F)F)nn3c2)cc1 [Compound 1-172]
- Binding: ++ (50-80%)
